Calls of active or inactive are those of the source. No cut-off for these calls is given here.

The record followed here is ChEMBL document CHEMBL1155634, “New butenolides from two marine streptomycetes” (J Nat Prod, 2000).

Common to all, as to type: functional, organism-based
One assay deals with Escherichia coli. The assay is described as follows: Antibacterial activity against Escherichia coli.
For the next assay, the system named is Staphylococcus aureus. Put plainly: Antibacterial activity against Staphylococcus aureus.
A further assay has as its system Candida albicans. The assay is described as follows: Antifungal activity against Candida albicans.
In another assay the test system is Rhizomucor miehei. Put plainly: Antifungal activity against Mucor miehei Tu284.
The subject of assay [1] is Streptomyces viridochromogenes. The assay is described as follows: Antibacterial activity against Streptomyces viridochromogenes Tu57.
For assay [2], the system named is Streptomyces viridochromogenes. Put plainly: Antibacterial activity against Streptomyces viridochromogenes Tu57 assessed as inhibition of spore formation.

In the case of `CC(=O)C(C)CCCCC[C@H]1C=CC(=O)O1` (some centres undefined), the outcome (in the assay on Escherichia coli; with Staphylococcus aureus; in the assay on Candida albicans; with Rhizomucor miehei; in assay [1]; in assay [2]) was inactive.
Consider `CC(O)C(C)CCCCC[C@H]1C=CC(=O)O1` (stereo in doubt; 3), for which the outcome in assay [2] was inactive.
The same measure, in the same setting: the same measure for `CCC(C)(O)CCCCC[C@H]1C=CC(=O)O1` (some centres undefined): “inactive”; for `CC(O)C(C)CCCCC[C@H]1C=CC(=O)O1` (stereo in doubt; 2): “inactive”.
